ChEMBL document CHEMBL1152321, “Recent advances in the chemistry and biology of new generation taxoids” (J Nat Prod, 2009)

Columns and labels:
[1] = Cytotoxicity against P-glycoprotein deficient wild type human LCC-6 cells after 72 hrs; type: functional, cell-based; settings: LCC-6, 72 h
[2] = Cytotoxicity against human LCC-6 cells expressing P-glycoprotein after 72 hrs; type: functional, cell-based; settings: LCC-6, 72 h
[3] = Resistance factor, ratio of IC50 for human LCC-6 cells expressing P-glycoprotein to IC50 for P-glycoprotein deficient wild type human LCC-6 cells; type: functional; design: reference not given here
MCF7 [4] = experiment: Cytotoxicity against P-glycoprotein deficient wild type human MCF7 cells after 72 hrs; type: functional, cell-based; settings: MCF7, 72 h
MCF7 [5] = experiment: Cytotoxicity against human MCF7 cells expressing P-glycoprotein after 72 hrs; type: functional, cell-based; settings: MCF7, 72 h
MCF7 [6] = experiment: Resistance factor, ratio of IC50 for human MCF7 cells expressing P-glycoprotein to IC50 for P-glycoprotein deficient wild type human MCF7 cells; type: functional
NCI-H460 = experiment: Cytotoxicity against human H460 cells after 72 hrs; type: functional, cell-based; settings: NCI-H460, 72 h
HT-29 = experiment: Cytotoxicity against human HT-29 cells after 72 hrs; type: functional, cell-based; settings: HT-29, 72 h

CC(=O)O[C@@]12CO[C@@H]1C[C@H](O)[C@@]1(C)C(=O)[C@H](OC(=O)N(C)C)C3=C(C)[C@@H](OC(=O)[C@H](O)[C@@H](NC(=O)OC(C)(C)C)C(F)(F)F)C[C@@](O)([C@@H](OC(=O)c4cccc(N=[N+]=[N-])c4)[C@H]21)C3(C)C
IC50 [1]: 1.27 nM | IC50 [2]: 3.52 nM | Ratio [3]: 2.8 | IC50 (MCF7 [4]): 0.47 nM | IC50 (MCF7 [5]): 2.61 nM | Ratio (MCF7 [6]): 5.6 | IC50 (NCI-H460): 0.3 nM | IC50 (HT-29): 0.5 nM

COC(=O)O[C@H]1C(=O)[C@@]2(C)[C@H]([C@H](OC(=O)c3cccc(OC)c3)[C@]3(O)C[C@H](OC(=O)[C@H](O)[C@@H](NC(=O)OC(C)(C)C)C(F)(F)F)C(C)=C1C3(C)C)[C@]1(OC(C)=O)CO[C@@H]1C[C@@H]2O
IC50 [1]: 0.27 nM | IC50 [2]: 3.99 nM | Ratio [3]: 15 | IC50 (MCF7 [4]): 0.17 nM | IC50 (MCF7 [5]): 2.88 nM | Ratio (MCF7 [6]): 17 | IC50 (NCI-H460): 0.38 nM | IC50 (HT-29): 0.53 nM

CCC(=O)O[C@H]1C(=O)[C@@]2(C)[C@H]([C@H](OC(=O)c3cccc(Cl)c3)[C@]3(O)C[C@H](OC(=O)[C@H](O)[C@@H](NC(=O)OC(C)(C)C)C(F)F)C(C)=C1C3(C)C)[C@]1(OC(C)=O)CO[C@@H]1C[C@@H]2O
IC50 [1]: 0.52 nM | IC50 [2]: 4.71 nM | Ratio [3]: 9.1 | IC50 (MCF7 [4]): 0.44 nM | IC50 (MCF7 [5]): 5.2 nM | Ratio (MCF7 [6]): 12 | IC50 (NCI-H460): 0.3 nM | IC50 (HT-29): 0.43 nM

CC(=O)O[C@@]12CO[C@@H]1C[C@H](O)[C@@]1(C)C(=O)[C@H](OC(=O)N(C)C)C3=C(C)[C@@H](OC(=O)[C@H](O)[C@@H](NC(=O)OC(C)(C)C)C(F)F)C[C@@](O)([C@@H](OC(=O)c4cccc(Cl)c4)[C@H]21)C3(C)C
IC50 [1]: 0.21 nM | IC50 [2]: 3.87 nM | Ratio [3]: 18 | IC50 (MCF7 [4]): 0.31 nM | IC50 (MCF7 [5]): 2.96 nM | Ratio (MCF7 [6]): 9.5 | IC50 (NCI-H460): 0.36 nM | IC50 (HT-29): 0.58 nM

COc1cccc(C(=O)O[C@H]2[C@@H]3[C@]4(OC(C)=O)CO[C@@H]4C[C@H](O)[C@@]3(C)C(=O)[C@H](OC(C)=O)C3=C(C)[C@@H](OC(=O)[C@H](O)[C@@H](NC(=O)OC(C)(C)C)C(F)F)C[C@]2(O)C3(C)C)c1
IC50 [1]: 0.26 nM | IC50 [2]: 5.57 nM | Ratio [3]: 21 | IC50 (MCF7 [4]): 0.34 nM | IC50 (MCF7 [5]): 4.16 nM | Ratio (MCF7 [6]): 12 | IC50 (NCI-H460): 0.38 nM | IC50 (HT-29): 0.52 nM

COC(=O)O[C@H]1C(=O)[C@@]2(C)[C@H]([C@H](OC(=O)c3cccc(Cl)c3)[C@]3(O)C[C@H](OC(=O)[C@H](O)[C@@H](NC(=O)OC(C)(C)C)C(F)F)C(C)=C1C3(C)C)[C@]1(OC(C)=O)CO[C@@H]1C[C@@H]2O
IC50 [1]: 0.13 nM | IC50 [2]: 1.82 nM | Ratio [3]: 14 | IC50 (MCF7 [4]): 0.26 nM | IC50 (MCF7 [5]): 2.08 nM | Ratio (MCF7 [6]): 8 | IC50 (NCI-H460): 0.25 nM | IC50 (HT-29): 0.29 nM

CC(=O)O[C@@]12CO[C@@H]1C[C@H](O)[C@@]1(C)C(=O)[C@H](OC(=O)N(C)C)C3=C(C)[C@@H](OC(=O)[C@H](O)[C@@H](NC(=O)OC(C)(C)C)C(F)(F)F)C[C@@](O)([C@@H](OC(=O)c4cccc(F)c4)[C@H]21)C3(C)C
IC50 [1]: 0.32 nM | IC50 [2]: 5.57 nM | Ratio [3]: 17 | IC50 (MCF7 [4]): 0.32 nM | IC50 (MCF7 [5]): 2.64 nM | Ratio (MCF7 [6]): 8.3 | IC50 (NCI-H460): 0.5 nM | IC50 (HT-29): 0.76 nM

COC(=O)O[C@H]1C(=O)[C@@]2(C)[C@H]([C@H](OC(=O)c3cccc(Cl)c3)[C@]3(O)C[C@H](OC(=O)[C@H](O)[C@@H](NC(=O)OC(C)(C)C)C(F)(F)F)C(C)=C1C3(C)C)[C@]1(OC(C)=O)CO[C@@H]1C[C@@H]2O
IC50 [1]: 0.29 nM | IC50 [2]: 5.08 nM | Ratio [3]: 18 | IC50 (MCF7 [4]): 0.65 nM | IC50 (MCF7 [5]): 4.72 nM | Ratio (MCF7 [6]): 7.3 | IC50 (NCI-H460): 0.43 nM | IC50 (HT-29): 0.68 nM

CC(=O)O[C@H]1C(=O)[C@@]2(C)[C@H]([C@H](OC(=O)c3cccc(N=[N+]=[N-])c3)[C@]3(O)C[C@H](OC(=O)[C@H](O)[C@@H](NC(=O)OC(C)(C)C)C(F)(F)F)C(C)=C1C3(C)C)[C@]1(OC(C)=O)CO[C@@H]1C[C@@H]2O
IC50 [1]: 1.18 nM | IC50 [2]: 4 nM | Ratio [3]: 3.4 | IC50 (MCF7 [4]): 0.47 nM | IC50 (MCF7 [5]): 3.85 nM | Ratio (MCF7 [6]): 8.2 | IC50 (NCI-H460): 0.2 nM | IC50 (HT-29): 0.5 nM

CCC(=O)O[C@H]1C(=O)[C@@]2(C)[C@H]([C@H](OC(=O)c3cccc(N=[N+]=[N-])c3)[C@]3(O)C[C@H](OC(=O)[C@H](O)[C@@H](NC(=O)OC(C)(C)C)C(F)F)C(C)=C1C3(C)C)[C@]1(OC(C)=O)CO[C@@H]1C[C@@H]2O
IC50 [1]: 0.39 nM | IC50 [2]: 1.15 nM | Ratio [3]: 2.9 | IC50 (MCF7 [4]): 0.32 nM | IC50 (MCF7 [5]): 0.96 nM | Ratio (MCF7 [6]): 3 | IC50 (NCI-H460): 0.27 nM | IC50 (HT-29): 0.37 nM

CC(=O)O[C@@]12CO[C@@H]1C[C@H](O)[C@@]1(C)C(=O)[C@H](OC(=O)N(C)C)C3=C(C)[C@@H](OC(=O)[C@H](O)[C@@H](NC(=O)OC(C)(C)C)C(F)(F)F)C[C@@](O)([C@@H](OC(=O)c4cccc(Cl)c4)[C@H]21)C3(C)C
IC50 [1]: 0.27 nM | IC50 [2]: 2.55 nM | Ratio [3]: 9.4 | IC50 (MCF7 [4]): 0.12 nM | IC50 (MCF7 [5]): 1.02 nM | Ratio (MCF7 [6]): 8.5 | IC50 (NCI-H460): 0.42 nM | IC50 (HT-29): 0.45 nM

CC(=O)O[C@H]1C(=O)[C@@]2(C)[C@H]([C@H](OC(=O)c3cccc(Cl)c3)[C@]3(O)C[C@H](OC(=O)[C@H](O)[C@@H](NC(=O)OC(C)(C)C)C(F)F)C(C)=C1C3(C)C)[C@]1(OC(C)=O)CO[C@@H]1C[C@@H]2O
IC50 [1]: 0.31 nM | IC50 [2]: 5.8 nM | Ratio [3]: 19 | IC50 (MCF7 [4]): 0.4 nM | IC50 (MCF7 [5]): 6.48 nM | Ratio (MCF7 [6]): 16 | IC50 (NCI-H460): 0.49 nM | IC50 (HT-29): 1.94 nM

COc1cccc(C(=O)O[C@H]2[C@@H]3[C@]4(OC(C)=O)CO[C@@H]4C[C@H](O)[C@@]3(C)C(=O)[C@H](OC(C)=O)C3=C(C)[C@@H](OC(=O)[C@H](O)[C@@H](NC(=O)OC(C)(C)C)C(F)(F)F)C[C@]2(O)C3(C)C)c1
IC50 [1]: 0.33 nM | IC50 [2]: 3.99 nM | Ratio [3]: 12 | IC50 (MCF7 [4]): 0.32 nM | IC50 (MCF7 [5]): 8.8 nM | Ratio (MCF7 [6]): 28 | IC50 (NCI-H460): 0.38 nM | IC50 (HT-29): 0.69 nM

COC(=O)O[C@H]1C(=O)[C@@]2(C)[C@H]([C@H](OC(=O)c3cccc(F)c3)[C@]3(O)C[C@H](OC(=O)[C@H](O)[C@@H](NC(=O)OC(C)(C)C)C(F)F)C(C)=C1C3(C)C)[C@]1(OC(C)=O)CO[C@@H]1C[C@@H]2O
IC50 [1]: 0.86 nM | IC50 [2]: 12.6 nM | Ratio [3]: 15 | IC50 (MCF7 [4]): 0.59 nM | IC50 (MCF7 [5]): 11.4 nM | Ratio (MCF7 [6]): 19 | IC50 (NCI-H460): 0.3 nM | IC50 (HT-29): 0.43 nM

COc1cccc(C(=O)O[C@H]2[C@@H]3[C@]4(OC(C)=O)CO[C@@H]4C[C@H](O)[C@@]3(C)C(=O)[C@H](OC(=O)N(C)C)C3=C(C)[C@@H](OC(=O)[C@H](O)[C@@H](NC(=O)OC(C)(C)C)C(F)(F)F)C[C@]2(O)C3(C)C)c1
IC50 [1]: 0.28 nM | IC50 [2]: 4.48 nM | Ratio [3]: 16 | IC50 (MCF7 [4]): 0.57 nM | IC50 (MCF7 [5]): 1.84 nM | Ratio (MCF7 [6]): 3.2 | IC50 (NCI-H460): 0.35 nM | IC50 (HT-29): 0.68 nM
